{"source": "patent US20050215517A1", "about": "“Use of an anti-endotoxin drug in the prevention and treatment of disease” (priority 1999, published 2005)", "test_system": "LPS-induced IL-6 release", "experiment": "Inhibition of LPS-induced IL-6 release in ex vivo blood samples during intravenous infusion of E5564", "parameters": "species or system beagle dogs", "protocol": "(§1) FIG. 5 is a pair of graphs showing ex vivo analysis of active E5564 during intravenous infusion. Activity of E5564 was determined during intravenous infusion of 0.24 mg/kg/hour E5564 (□,∘) or 2.4 mg/kg/hour E5564 (▪,●) into female (upper panel) or male (lower panel) beagle dogs. At the indicated times, blood was drawn and analyzed for E5564 activity by adding 1 ng/ml LPS, incubating for three hours at 37° C., and assaying the plasma fraction for IL-6 by bioassay, as is described in the Materials and Methods section (below). Each value represents the mean±standard deviation of samples assayed in duplicate from each animal. The zero hour sample was taken prior to infusion.\nas §1, with “FIG. 6” for “FIG. 5”, “adding 10” for “adding 1”\nas §1, with “FIG. 7” for “FIG. 5”, “adding 100” for “adding 1”\nTo assess the activity of E5564 over multiple time points from a single treated animal, we employed an ex vivo assay, as is mentioned above, to test for active drug in samples of blood drawn from a treated animal. Samples of blood were drawn from beagle dogs infused with E5564 over a period of 24 hours. One dog of each sex was tested under each of two dose regimens: a low dose of 0.24 mg/kg/hour and a high dose of 2.4 mg/kg/hour.\nBlood samples were taken from these dogs at predose, 4 hours after initiation of infusion, and 24 hours after initiation of infusion. The blood samples were challenged with 0, 1, 10, or 100 ng/ml LPS, and then incubated for three hours. The samples were then analyzed for activation by LPS, using induction of cytokine response as a readout.\nLPS from Escherichia coli (0111:B4) was purchased from List Biologicals (Campbell, Calif.). LPS was dissolved in sterile water at 1 mg/ml and stored at −20° C. Prior to use, LPS was sonicated in a bath sonicator (VW-380; Heat Systems-Ultrasonics Inc., Farmingdale, N.Y.) for 1-2 minutes immediately before use and diluted into Ca^2+, Mg^2+ free Hanks balanced salt solution (HBSS; Sigma).\nDogs were treated with E5564 (0.24 or 2.4 mg/kg/hour) dissolved in a mixture of placebo solution (10% lactose monohydrate, 0.045% Na2HPO4.7H2O, 0.035% NaH2PO4.H2O, 0.006% NaOH; pH 7.4±0.3) and 5% dextrose (1:4) by intravenous infusion via indwelling catheter for 24 hours at a rate of 2 mg/kg/hour.\n(for time zero samples), or incubated with the indicated concentrations of LPS for three hours. Plasma was then prepared and immediately frozen at −80° C. Samples were stored at −80° C. until assay.\nB9 cells were the gift of Dr. Mary Rodrick (Beth Israel Deaconess Hospital, Boston, Mass.). They were grown in Iscove's DMEM medium containing 5% fetal bovine serum (FBS), […] 2-mercaptoethanol, 2 mM L-glutamine, and 100 U/ml penicillin/streptomycin. […]", "data": [{"compound": "CCCCCC/C=C\\CCCCCCCCCC(=O)N[C@H]1[C@H](OC[C@H]2O[C@H](OP(=O)(O)O)[C@H](NC(=O)CC(=O)CCCCCCCCCCC)[C@@H](OCCCCCCCCCC)[C@@H]2O)O[C@H](COC)[C@@H](OP(=O)(O)O)[C@@H]1OCC[C@@H](CCCCCCC)OC", "note": "[E5564, α-D-Glucopyranose, 3-O-decyl-2-deoxy-6-O-[2-deoxy-3-O-[(3R)-3-methoxydecyl)-6-O-methyl-2-[[(11Z)-1-oxo-11-octadecenyl)amino]-4-O-phosphono-β-D-glucopyranosyl]-2-[(1,3-dioxotetradecyl)amino]-,1-(dihydrogen phosphate)]", "values": [{"measurement": "Inhibition of response to LPS (IL-6) vs predose", "setting": "infusion 0.24 mg/kg/hour, 1 ng/ml LPS, 4 hours after beginning infusion", "value": "≥ 98", "unit": "%"}, {"measurement": "Inhibition of response to LPS (IL-6) vs predose", "setting": "infusion 0.24 mg/kg/hour, 1 ng/ml LPS, end of infusion (24 hours)", "value": "complete"}, {"measurement": "Inhibition of response to LPS (IL-6) vs predose", "setting": "infusion 0.24 mg/kg/hour, 10 ng/ml LPS, end of infusion (24 hours)", "value": "~85", "unit": "%"}, {"measurement": "Maximum inhibition of response to LPS (IL-6) vs predose", "setting": "infusion 0.24 mg/kg/hour, 100 ng/ml LPS, end of infusion (24 hours)", "value": "34-52%"}, {"measurement": "Inhibition of response to LPS (IL-6) vs predose", "setting": "infusion 2.4 mg/kg/hour, 1 ng/ml LPS, 4 hours after beginning infusion", "value": "complete inhibition"}, {"measurement": "Inhibition of response to LPS (IL-6) vs predose", "setting": "infusion 2.4 mg/kg/hour, 1 ng/ml LPS, end of infusion (24 hours)", "value": "complete"}, {"measurement": "Inhibition of response to LPS (IL-6) vs predose", "setting": "infusion 2.4 mg/kg/hour, 10 ng/ml LPS, 4 hours", "value": "nearly completely inhibited"}, {"measurement": "Inhibition of response to LPS (IL-6) vs predose", "setting": "infusion 2.4 mg/kg/hour, 10 ng/ml LPS, end of infusion (24 hours)", "value": "complete"}, {"measurement": "Inhibition of response to LPS (IL-6) vs predose", "setting": "infusion 2.4 mg/kg/hour, 100 ng/ml LPS, 4 hours", "value": "nearly completely inhibited"}, {"measurement": "Inhibition of response to LPS (IL-6) vs predose", "setting": "infusion 2.4 mg/kg/hour, 100 ng/ml LPS, end of infusion (24 hours)", "value": "> 90", "unit": "%"}]}]}
